Experimental data reported in patent US20090054376A1, “BENZOFURAN DERIVATIVES WITH THERAPEUTIC ACTIVITIES” (Pharmos Corporation, priority 2005, published 2009).
Counter-ions that a name gives are not always drawn. Like-named read-outs stand apart in the source and are kept apart here.

Tests used:
[1] = tested on: visceral pain writhing responses; experiment: Visceral pain, acetic acid induced writhing responses; format: in vivo, Male ICR mice; conditions: for inhibition in vivo at 2 mg/kg: Mus musculus, iv, read-out: Percent Inhibition of Visceral Pain Writhing Responses; for inhibition in vivo at 2 mg/kg / Percent Inhibition of Visceral Pain Writhing Responses: single dose 2 mg/kg i.v., compared to untreated group
Experimental: Male ICR mice (average body weight 25 g, Harlan, Israel) were pretreated by i.v. injection at volume dose of 5 ml/kg of vehicle, control and test compounds at various doses. Other routes of administration were tested for selected compounds including i.m. or s.c. injections at volume dose of 2.5 ml/kg and p.o. gavage at volume dose of 5 ml/kg. Compounds were dissolved in CREMOPHOR®:Ethanol and diluted 1:20 in saline prior to injection or gavage. Compounds administered i.v. were injected fifteen minutes before pain induction, whereas compounds administered i.m., s.c. or p.o. were supplied thirty minutes before pain induction, unless otherwise indicated. Each treatment group, except for controls comprising at least 30 animals, was composed of at least 6 animals. Fifteen or thirty minutes after drug administration, depending on the route of administration, the mice were injected i.p. with 10 ml/kg of 0.6% acetic acid and the number of visceral pain related behaviors (writhing movements globally defined as WR, i.e. stretching, contractions of the abdomen accompanied by an elongation of the body and extension of the hind limbs) was counted over a period of 5 minutes, starting 5 minutes after the acetic acid administration. These visceral pain related behaviors were globally defined as writhing responses (WR). The results are expressed as mean number of writhing responses ±SEM. Data were analyzed using analysis of variance (ANOVA) followed by post-hoc Fisher test.

[2] = tested on: carrageenan induced inflammatory pain and paw edema; experiment: Inflammatory pain and paw edema induced by carrageenan; format: in vivo, Male Sprague Dawley rats; conditions: for inhibition in vivo at 20 mg/kg / inhibition in vivo at 10 mg/kg: Rattus norvegicus, ip; for inhibition in vivo at 20 mg/kg: 20 mg/kg i.p. (two asterisks); for Percent Inhibition of Inflammatory Pain Responses, Edema / Percent Inhibition of Inflammatory Pain Responses, ΔForce / Percent Inhibition of Inflammatory Pain Responses, ΔLT / inhibition in vivo at 10 mg/kg: 10 mg/kg i.p.
Experimental: Male Sprague Dawley rats (average body weight 200 g, Harlan, Israel) were transiently sedated by placement on dry ice for the duration of the injections. Rats were injected subcutaneously, in the subplantar region of one (right) paw with 0.1 ml of 2% w/v λ Carrageenan in sterile saline. […] Test compounds were, unless otherwise stated, administered i.p. at initial single dose of 3, 10 or 20 mg/kg, and volume dose of 5 ml/kg, immediately after the carrageenan injection. Selected compounds were also tested p.o. following oral gavage. Vehicle and celecoxib treated animals were used as controls. Each treatment group comprised at least seven animals.
Before induction of inflammatory pain and three hours after injection, the animals reactions to pain stimuli were tested in two systems. The first stimulus was thermal and assessed by the Plantar Test according to Hargreaves, using Ugo Basile Model 7370. The scale was set to an intensity of 50 arbitrary units. The latency time till the animal lift a paw as a reaction to the thermal stimulus was recorded for both the inflamed and non-inflamed hind paws. The second stimulus was mechanical (tactile) and assessed using a Dynamic Plantar Sesthesiomether (Ugo Basile Model 73400-002). […] Finally, the impact on paw edema was assessed. Paw thickness was measured using a dial thickness gauge (Spring-dial, constant low pressure gauge, Mitutoyo, TG/L-1, 0.01 mm) and paw volume was measured using a plethysmometer (model #7150, Ugo Basile, Italy). At the end of the study, animals were euthanized.
The results are measured as the differences between the two hind paws at time 0 and 3 hours both as ALT, for the latency time in the thermal part of the study, and as ΔForce, for the mechanical part of the study. The paw volume is expressed as percent from vehicle treated animals. Results are expressed as mean±SEM for each treatment group and the differences among those groups are analyzed by analysis of variance (ANOVA) followed by post-hoc Tukey's test.
Results refer to i.p. treatment with 10 mg/kg. Results marked with one asterisk refer to a dose 3 mg/kg, whereas two asterisks refer to 20 mg/kg. Celecoxib is included as reference.

[3] = 3 hours, reduction in paw swelling, read-out: Percent Inhibition of Inflammatory Pain Responses, Edema
[4] = 3 hours, thermal stimulus, read-out: Percent Inhibition of Inflammatory Pain Responses, ΔLT
[5] = 3 hours after carrageenan, reduction in paw swelling
[6] = 3 hours, mechanical stimulus, read-out: Percent Inhibition of Inflammatory Pain Responses, ΔForce
[7] = 3 hours after carrageenan, reduction in paw swelling, read-out: Percent Inhibition of Inflammatory Pain Responses, Edema

CCCCCCC(C)(C)c1cc(O)c2c(c1)OC1C(N)CCCCC21 (stereo not drawn) [C7S-32 HCl salt, 9-Amino-2-(1,1-dimethylheptyl)-5,6,7,8,9,9a-hexahydro-4bH-10-oxa-benzo[α]azulen-4-ol] was tested, and the “inhibition of pain (writhing) response” value ([1]; 4 mg/kg i.v.) was 50% and the “inhibition of pain (writhing) response” value ([1]; 10 mg/kg i.v.) was 84%.

With COC(=O)c1cc(O)c2c(c1)OC1CCCCC21 (stereo not shown) [Compound C6S-21, 1-hydroxy-5a,6,7,8,9,9a-hexahydro-dibenzofuran-3-carboxylic acid methyl ester] the inhibition in vivo at 20 mg/kg [2, 3] was 38% and the inhibition in vivo at 20 mg/kg [2, 4] was 44%.

With CCCCC(C)(C)c1cc(O)c2c(c1)OC1CCCCCC21 (stereo not drawn) [Compound C7S-3, 2-(1,1-dimethylpentyl)-5,6,7,8,9,9a-hexahydro-4bH-10-oxa-benzo[α]azulen-4-ol] the “Percent Inhibition of Inflammatory Pain Responses, Edema” value (“Percent Inhibition … Edema” below) [2, 5] was 43%, the “Percent Inhibition of Inflammatory Pain Responses, ΔForce” value (from here on “Percent Inhibition … ΔForce”) ([2]; 3 hours, mechanical stimulus) was 35% and the “Percent Inhibition of Inflammatory Pain Responses, ΔLT” value (“Percent Inhibition … ΔLT” for short) ([2]; 3 hours, thermal stimulus) was 46%.

CCCCC(C)(C)c1cc(OCC(O)CO)c2c(c1)OC1CCCCC21 (stereo not shown) [Compound C6S-10, 3-[3-(1,1-Dimethylpentyl)-5a,6,7,8,9,9a-hexahydro-dibenzofuran-1-yloxy]-propane-1,2-diol] was tested, and the inhibition in vivo at 20 mg/kg [2, 6] was 24%, the inhibition in vivo at 20 mg/kg [2, 3] was 37% and the inhibition in vivo at 20 mg/kg [2, 4] was 50%. The inhibition in vivo at 2 mg/kg [1] was 28%.

In the case of CCCCCCC(C)(C)c1cc(O)c2c(c1)OC1(C)C(C)CCC21 (stereo not drawn) [Compound C5S-4, 6-(1,1-dimethylheptyl)-1,8a-dimethyl-2,3,3a,8a-tetrahydro-1H-8-oxa-cyclo-penta[α]inden-4-ol], the “Percent Inhibition … Edema” value [2, 5] is reported as 49%, the “Percent Inhibition … ΔForce” value ([2]; 3 hours, mechanical stimulus) is reported as 88% and the “Percent Inhibition … ΔLT” value ([2]; 3 hours, thermal stimulus) is reported as 100%.

CCCCCCC(C)(C)c1cc(O)c2c(c1)OC1C(N)CCCCC21 (stereo not drawn) [Compound C7S-32, 9-Amino-2-(1,1-dimethylheptyl)-5,6,7,8,9,9a-hexahydro-4bH-10-oxa-benzo[α]azulen-4-ol] was tested, and the “inhibition of pain (writhing) response” value ([1]; 4 mg/kg i.v.) was 38% and the “inhibition of pain (writhing) response” value ([1]; 10 mg/kg i.v.) was 100%.

In the case of Cc1ccc(-c2cc(C(F)(F)F)nn2-c2ccc(S(N)(=O)=O)cc2)cc1 [Celecoxib, reference compound], the “Percent Inhibition … ΔForce” value ([2]; 3 hours, mechanical stimulus) is reported as 2%, the inhibition in vivo at 10 mg/kg [2, 7] is reported as 45% and the inhibition in vivo at 10 mg/kg [2, 6] is reported as 2%. The inhibition in vivo at 10 mg/kg [2, 4] was 58% and the “activity in visceral pain model” value ([1]; doses up to 10 mg/kg) was “inactive”.

CCCCCCC(C)(C)c1cc(O)c2c3c(oc2c1)CCCC3 [Compound C6M-1, 3-(1,1-Dimethylheptyl)-6,7,8,9-tetrahydro-dibenzo-furan-1-ol] gave an inhibition in vivo at 10 mg/kg [2, 7] of 31%, an inhibition in vivo at 10 mg/kg [2, 6] of 12% and an inhibition in vivo at 10 mg/kg [2, 4] of 12%.

Work on CCCCCCC(C)(C)c1cc(OCC(=O)O)c2c(c1)OC1CCCCC21 (stereo not shown) [Compound C6S-18, [3-(1,1-dimethylheptyl)-5a,6,7,8,9,9a-hexahydro-dibenzofuran-1-yloxy]-acetic acid] yielded an inhibition in vivo at 20 mg/kg [2, 6] of 31%, an inhibition in vivo at 20 mg/kg [2, 3] of 48% and an inhibition in vivo at 20 mg/kg [2, 4] of 49%.

In the case of CCCCCCC(C)(C)c1cc(OC(=O)CCNC)c2c(c1)OC1CC(C)(C)CCC21 (stereo not shown) [Compound C6S-39, 3-Methylamino-propionic acid 3-(1,1-dimethylheptyl)-7,7-dimethyl-5a,6,7,8,9,9a-hexahydro-dibenzofuran-1-yl ester], the “inhibition of writhing responses” value ([1]; 0.02 mg/kg i.v., compared to vehicle) is reported as 38%, the “inhibition of pain response” value ([1]; 0.08 mg/kg i.v.) is reported as “totally inhibited pain response” and the “fold more potent than morphine” value ([1]; IC50 in visceral pain, i.v.) is reported as 35 fold. For the same compound, the inhibition in vivo at 2 mg/kg [1] was greater than 90% and the “IC50 in visceral pain” value ([1]; i.v., estimated or calculated from dose range) was 0.03 mg/kg.

CCCCCCC(C)(C)c1cc(OC(=O)C=CC(=O)O)c2c(c1)OC1(C)C(C)CCC21 (stereo not drawn) [Compound C5S-5, But-2-enedioic acid mono-[6-(1,1-dimethylheptyl)-1,8a-dimethyl-2,3,3a,8a-tetrahydro-1H-8-oxa-cyclopenta[α]inden-4-yl]ester] was tested, and the “Percent Inhibition of Visceral Pain Writhing Responses” value [1] was 27%.

In the case of CCCCC(C)(C)c1cc(O)c2c(c1)OC1CCCCC21C (stereo not shown) [Compound C6S-12, 3-(1,1-dimethylpentyl)-9a-methyl-5a,6,7,8,9,9a-hexahydro-dibenzofuran-1-ol], the inhibition in vivo at 10 mg/kg [2, 7] is reported as 53%, the inhibition in vivo at 10 mg/kg [2, 6] is reported as 37% and the inhibition in vivo at 10 mg/kg [2, 4] is reported as 33%.

With CCCCC(C)(C)c1cc2c(c(OP(=O)(O)O)c1)C1CCCCC1O2 (stereo not shown) [Compound C6S-16, Phosphoric acid mono-[3-(1,1-dimethylpentyl)-5a,6,7,8,9,9a-hexahydro-dibenzofuran-1-yl]ester] the inhibition in vivo at 20 mg/kg [2, 6] was 6%, the inhibition in vivo at 20 mg/kg [2, 3] was 31% and the inhibition in vivo at 20 mg/kg [2, 4] was 69%.

In the case of CCCCCCC(C)(C)c1cc2c(c(OP(=O)(O)O)c1)C1CCCCC(O)C1O2 (stereo not drawn) [Compound C7S-13, Phosphoric acid mono-[2-(1,1-dimethylheptyl)-9-hydroxy-5,6,7,8,9,9a-hexahydro-4bH-10-oxa-benzo[α]azulen-4-yl]ester], the “Percent Inhibition … Edema” value [2, 5] is reported as 34%, the “Percent Inhibition … ΔForce” value ([2]; 3 hours, mechanical stimulus) is reported as 6% and the “Percent Inhibition … ΔLT” value ([2]; 3 hours, thermal stimulus) is reported as 0%. For the same compound, the “Percent Inhibition of Visceral Pain Writhing Responses” value [1] was 72%.
